Data reported in publication PMC4549746, “Zearalenone in the Intestinal Tissues of Immature Gilts Exposed per os to Mycotoxins” (Toxins, 2015).
Like-named read-outs stand apart in the source and are kept apart here.

Legend:
[1] = in vitro studies, cited from earlier work
[2] = Average daily gains and feed conversion of gilts during 42-day per os exposure; assay type: in vivo
Procedure: The animals were divided into an experimental group (E, n = 18) and a control group (C, n = 21). Group E animals were orally administered ZEN at 40 μg/kg BW. Group C pigs were fed a placebo. The animals were fed complete diets in a restricted feeding regimen (Table 1). The daily dose of ZEN (40 µg/kg BW) was administered to each animal individually, which corresponds to exposure to 957–1014 µg ZEN/kg of a complete diet, depending on daily feed intake. Zearalenone was biosynthesized, purified and standardized by the Department of Chemistry of the Poznań University of Life Sciences. The experiment covered a period of 42 days. The mycotoxin was administered per os daily, in gelatine capsules before the morning feeding. The ZEN dose was adjusted to the body weight of the experimental animals. The mycotoxin was administered in capsules to prevent problems associated with uneven feed intake. Mycotoxin samples were diluted in 300 μL of 96% ethyl alcohol (96% ethyl alcohol, SWW 2442-90, Polskie Odczynniki Chemiczne SA, Gliwice, Poland) to the required dose level (based on body weight). Final solutions were stored at room temperature for 12 h to evaporate the solvent. The animals were weighed every 7 days to update mycotoxin doses for each gilt. Three animals from the experimental group and the control group each were sacrificed on Days 1, 7, 14, 21, 28, 35 and 42 (a total of 6 gilts in each week of exposure), excluding day 1, when only 3 control group animals were scarified. Every week, tissue samples were collected from the porcine gastrointestinal tract (duodenum, first and middle sections, jejunum, ileum, cecum, ascending colon, transverse colon, descending colon, middle section, and the liver, left lobe). Tissue samples were collected from the whole intestinal cross-sections.

[3] = Group E, ZEN 40 μg/kg BW daily per os, throughout the experiment (42 days)

Question: Which results are given for `C[C@H]1CCCC(=O)CCC/C=C/c2cc(O)cc(O)c2C(=O)O1` [ZEN, zearalenone]?
Answer: ingested ZEN absorbed in the small intestine ([1]; ref 12): 55%; ingested ZEN absorbed in the small intestine ([1]; ref 26): 51%; differences in average daily gains between groups ([2]; Group E (ZEN 40 μg/kg BW daily per os) vs Group C (placebo)): No significant differences; average daily gains [2, 3]: 602 g; feed per kg of BW gain [2, 3]: 2.61 kg feed per kg of BW gain
